Test results published in US12649980B2, “Three-dimensional surface for protein and small molecule microarrays” (The Johns Hopkins University, priority 2019, dated 2026).

Legend:
[1] = molecular target: FKBP25 (Homo sapiens, UniProt Q00688); assay: peptidyl prolyl cis-trans isomerase activity inhibition, FKBP25; assay type: biochemical; conditions: inhibition of prolyl isomerase activity
[2] = molecular target: T1, GLUT1 (Homo sapiens, UniProt P11166); assay: rapafucin 3D microarray screen with GLUT1-containing cell lysate; assay type: binding; conditions: signal-to-background ratio, 3D surface, lysate of GLUT1-overexpressing HEK293T; hit if SBR > 3
T1 construct: The full-length human SLC2A1, SLC2A3, and SLC2A4 genes were PCR amplified and inserted into pLenti6M vector 2; expressed in transfected cells
T1 sequence (P11166 1-492): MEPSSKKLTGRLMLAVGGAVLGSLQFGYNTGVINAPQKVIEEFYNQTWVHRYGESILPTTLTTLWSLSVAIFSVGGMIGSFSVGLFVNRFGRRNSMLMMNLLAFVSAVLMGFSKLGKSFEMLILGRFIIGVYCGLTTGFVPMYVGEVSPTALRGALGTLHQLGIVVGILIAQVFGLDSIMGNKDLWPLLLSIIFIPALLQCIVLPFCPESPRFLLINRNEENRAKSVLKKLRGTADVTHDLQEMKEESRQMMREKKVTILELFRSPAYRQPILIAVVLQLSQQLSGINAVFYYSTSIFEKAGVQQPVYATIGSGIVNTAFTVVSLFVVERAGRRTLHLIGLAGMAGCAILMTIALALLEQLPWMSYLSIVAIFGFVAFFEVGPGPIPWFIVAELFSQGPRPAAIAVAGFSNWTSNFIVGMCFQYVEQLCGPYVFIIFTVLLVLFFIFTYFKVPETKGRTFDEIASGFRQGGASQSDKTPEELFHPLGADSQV
Text: Once stock solutions of the rapafucin library were arrayed on the 2D or 3D surface and most of solvent carrier was evaporated, the crosslinking reaction was initiated by irradiating the surfaces with 365-nm wavelength UV light. Kawatani and Osada, Medchemcomm 2014, 5, 277-287. […] To screen for GLUT1-interacting rapafucins, GLUT1 was stably overexpressed in HEK293T cells and generated cell lysates containing detergent-solubilized recombinant GLUT1 (FIG. 10). The GLUT1-containing cell lysate was then incubated on both 2D and 3D rapafucin microarrays. After washing the slides to remove unbound proteins, the bound GLUT1 protein was detected with anti-GLUT1 antibodies, followed by visualization with Cy5-labeled secondary antibodies using a microarray scanner. Rapafucins were scored as positive hits when the corresponding SBR was greater than 3. Based on this criterion, a total of 17 rapafucin hits and one positive control BAY-876, a specific GLUT1 inhibitor, Siebeneicher et al., ChemMedChem 2016, 11, 2261-2271, were identified on the 3D rapafucin microarray. In contrast, only one hit (WL13-F11, also among the 17 hits identified from the 3D rapafucin microarray) was identified on the 2D rapafucin microarray (Table 1, FIG. 11).
The amine substrates (Arrayit, SMM) were immerged in a mixture of 2-bromoisobutyryl bromide (BIBB, 0.1 mM, as initiator) and propionyl bromide (10 mM, as horizontal spacer) with triethylamine (15 mM) in DCM for 4 hours. A degassed polymerization reaction mixture, containing copper (II) chloride dihydrate (CuCl2, 4 mmol), 2,2′-bipyridine (2 mmol), 75 mmol monomers mixture of 2-(dimethylamino)ethyl methacrylate (DMAEMA) and poly(ethylene glycol) methacrylate (PEGMA Mn 360) in 500 mL Milli-Q/MeOH, was mixed with freshly made ascorbic acid (4 mmol). The mixture was applied to 50 slides for 6 hours under the argon atmosphere for the surface-initiated polymerization. A gradient ratio of PEGMA and DMAEMA was set, including 10:0, 8:2, 5:5, 2:8 and 0:10 for an optimization purpose. The terminals of the brushes were further functionalized by N,N′-disuccinimidyl carbonate (DSC, 10 mM) and 4-dimethylaminopyridine (DMAP,10 mM) in DMF overnight to form succinimidyl carbonate intermediate, and, successively, diazirine linker 1 (10 mM) and N,Ndiisopropylethylamine (DIPEA, 50 mM) in DMF for 2 hours to couple the photoaffinity linker in dark at room temperature. At the end, the substrates were immerged in a 50 mM ethanolamine in DMF to block the residual carboxylic moiety. The slides were thoroughly washed by DMF, EtOH and DCM and dried in a fuming cupboard and ready for spotting.
10 mM of rapafucins in DMSO from the library were spotted onto the slides with a high-precision microarrayer (Nanoprint, Arrayit, CA) for a desired pattern in dark, which was loaded with 16 100-μm diameter micro-spotting pins. The pin heads were thoroughly washed and sonicated in ethanol and dried for 4 times under a compassed air between each sample loading. After overnight evaporation, the slides were exposed to 365-nm wavelength UV irradiation for 4 J/cm^2 by CL-1000L UV crosslinker (UVP, CA) for rapafucins covalent immobilization. The slides were ultrasonic cleaned successively in DCM, MeOH and Milli-Q water and stored in a −20° C. freezer.
In the optimization experiments, the slides were incubated with 50 nM purified recombinant FKBP12 for 1 hour, while in the GLUT1 screening, 10 mg/mL of cell lysate containing DDM-solubilized GLUT1 from GLUT1 overexpressed HEK293T was incubated for 1 hour. Successively, primary antibody and CY5 labeled secondary antibody were added for 1 hour. The chips were washed in buffer A for 5 mins 3 times after the sample and antibodies incubation. After centrifugation, the dried chips were scanned by a microarray scanner (Genepix, US) at 635-nm wavelength. The final result was analyzed by GenePix software.

[3] = molecular target: FKBP12 (Homo sapiens, UniProt P62942); assay: peptidyl prolyl cis-trans isomerase activity inhibition, FKBP12; assay type: biochemical; conditions: inhibition of prolyl isomerase activity
Sequence of FKBP12 (P62942 whole entry, species assumed): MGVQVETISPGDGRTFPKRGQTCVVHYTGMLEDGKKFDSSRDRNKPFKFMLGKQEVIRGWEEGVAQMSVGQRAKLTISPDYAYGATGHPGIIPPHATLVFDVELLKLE

[4] = molecular target: FKSP13 (Homo sapiens, UniProt P26885); assay: peptidyl prolyl cis-trans isomerase activity inhibition, FKSP13; assay type: biochemical; conditions: inhibition of prolyl isomerase activity
Sequence of FKSP13 (P26885 22-142): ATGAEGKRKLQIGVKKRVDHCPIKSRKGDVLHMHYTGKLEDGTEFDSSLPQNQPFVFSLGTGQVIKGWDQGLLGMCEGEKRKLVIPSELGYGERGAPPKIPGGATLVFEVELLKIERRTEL

[5] = test system: A549 cells; assay: [3H]-2DG uptake assay in A549 cells; assay type: cell-based, human; conditions: 10 min incubation with compound, mean ± s.d., n = 3
Description: To determine which of the 17 rapafucin hits inhibited the transporter activity of GLUT1, an orthogonal glucose uptake assay using 2-deoxy-D-[3H] glucose ([3H]-2DG), a nonhydrolyzable, radioactive glucose analog, was employed. Each hit was separately incubated with A549 cells for 10 min before the amount of [3H]-2DG taken up by the cells was measured using scintillation counting. […] The effect of JW11-D2 on uptake of [3H]-2DG in human red blood cells that exclusively express GLUT1 was then determined. Helgerson and Carruthers, J. Biol. Chem. 1987, 262, 5464-5475. […] To further improve the potency of JW11-D2, a structure-activity relationship (SAR) study was performed by synthesizing 21 new analogs of JW11-D2 using different amino acid building blocks.
The inhibitory activity of compounds on glucose transport was analyzed by measuring the cell uptake of [3H]-2DG as previously described. Ulanovskaya et al., Chem. Biol. 2011, 18, 222-230. Briefly, cells were washed twice and incubated in low-glucose medium for 10 min. Cells were added drugs and incubated for another 10 min before adding [3H]-2DG. After 10 min incubation with [3H]-2DG, cells were washed twice and lysed with 0.2 N NaOH plus 0.2% SDS. The cell lysate was transferred to a new tube containing 1 mL of optiphase supermix. Glucose uptake was quantified with a scintillation counter.

Sequence of FKBP25 (Q00688 whole entry, species assumed): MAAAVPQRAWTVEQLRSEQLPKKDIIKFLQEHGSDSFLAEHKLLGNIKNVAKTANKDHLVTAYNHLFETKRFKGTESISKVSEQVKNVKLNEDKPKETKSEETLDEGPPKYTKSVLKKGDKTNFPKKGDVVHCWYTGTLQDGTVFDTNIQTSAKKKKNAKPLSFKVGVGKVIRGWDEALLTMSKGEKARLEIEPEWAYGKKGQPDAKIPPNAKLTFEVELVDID

CCC(C)C1C(=O)NCC(=O)N(C)CCC=CC(=O)OCC(C)(C)C(=O)C(=O)N2CCCCC2C(=O)OC(CCc2ccc(OC)c(OC)c2)c2cccc(c2)NC(=O)CCC(=O)N(C)C(CC(C)C)C(=O)NC(Cc2ccccc2)C(=O)N1C (centres unmarked) [JW11-D2, Rapaglutin A]
Ki [1]: > 5000 nM
3D SBR [2]: 6.5 ± 1.4
Ki [3]: 1.5 nM
Ki [4]: 539 ± 207 nM
IC50 [5]: 11.6 nM
